Data taken from paper PMC9873307, “Methylone, a rapid acting entactogen with robust anxiolytic and antidepressant-like activity” (Frontiers in Psychiatry, 2023).
Where two headings read alike, the source gives them in different places.

What was measured:
[1] = cited from earlier work; for reduced immobility in the FST: FST literature
[2] = parameters: method as in PMID 10080230; conditions: cited from earlier work
[3] = system: male Sprague Dawley rats; experiment: Open field test (OFT): locomotor activity and time in center; format: in vivo, rat
Procedure: (§1) Male Sprague Dawley rats (Charles River Laboratories) weighing 180–200 g on arrival, were used for all behavioral studies, which took place at Melior Discovery (Exton, PA, USA). Rats acclimated to their home cages for at least 1 week before testing, were maintained in a controlled environment on a 12 h light/dark cycle, with no more than 2 rats per cage. Animals received ad libitum access to standard rodent chow and water and were assigned randomly to treatment groups. All animal use and procedures were in accordance with established protocols approved by the Melior IACUC committee, Melior Standard Operation Procedures (SOP), and Transcend Therapeutics. Distinct cohorts of animals were used for each experiment/Figure presented in this manuscript.
(§2) Methylone HCl (0.5–30 mg/kg; Cayman Chemical) or Fluoxetine HCl (10 mg/kg; Sigma-Aldrich) were formulated in sterile 0.9% saline vehicle before IP administration. Control animals received saline vehicle. Methylone or saline was administered 30 min prior to FST or OFT testing sessions. Fluoxetine or saline were administered 23.5, 5, and 1 h prior to testing, consistent with previous studies ([19]).
All studies were performed by an experimenter blind to treatment group and according to standard protocols at Melior Discovery (Exton, PA, USA). The OFT was used to assess both locomotor activity and anxiety-like behavior. The OFT was run in a standard rat OFA chamber (17 ^^′′ × 17 ^^′′ × 12 ^^′′ , Med Associates). After habituation to the testing room and drug injection, rats were assessed for 30 min in the OFT using an automated activity monitoring system (MedAssociates). Locomotor activity was measured by recording the total ambulatory distance traveled (cm), reported in 5-min bins for the duration of the 30 min testing period. The center of the open field was defined as a 12 ^^′′ square, a predefined center setting on the MedAssociates analysis software. Time spent in the center of the open field, an anxiolytic measure, was also recorded for the 30 min testing period.

[4] = system: male Sprague Dawley rats; experiment: Forced swim test (FST); format: in vivo, rat; conditions: for swimming vs vehicle: Figure 3G
Procedure: as §1, §2
All studies were performed and scored by an experimenter blind to treatment group according to standard protocols at Melior Discovery (Exton, PA, USA) and based on published “modified FST” procedures ([20]). Briefly, rats were placed in a circular plexiglass container (29.2 cm diameter, 49.5 cm height) filled with water to a depth of 30 cm so rats could not support themselves by touching the bottom of the tank. Water was maintained at 22–25°C and was changed for every animal. Day 1 (Training) consisted of a 15 min acclimation trial, and Day 2 (Testing, 24 h later) consisted of the 5 min test. A time sampling procedure was employed where animals were observed every 5 s for the duration of the test session (60 counts or 5 min) and scored for immobility (defined as the failure to struggle), swimming (defined as a circular movement around the tank), or climbing (defined as an upward escape behavior). Data are expressed as the percent time spent immobile, swimming, or climbing for the 5-min testing session (e.g., the number of immobility counts divided by 60). Therefore, to extrapolate these values to time spent immobile in minutes, one can multiply the percent time immobile by 5 min.

## CNCCCN1c2ccccc2CCc2ccccc21 [desipramine]
[1]
  reduced immobility in the FST: 55–75%

## CN(C)CCc1c[nH]c2cccc(OP(=O)(O)O)c12 [psilocybin]
[1]
  reduced immobility in the FST: 67%

## CNC(C)Cc1ccc2c(c1)OCO2 (stereo not shown) [MDMA, 3,4-methylenedioxymethamphetamine]
[2]; clinically relevant doses
  effect on anxiety: no effect
[2]; higher doses
  effect on anxiety: anxiogenic
[1]
  reduced immobility in the FST: 47–78%
[1]; FST
  reduction of immobility compared to vehicle controls: 47–78%

## CNC1(c2ccccc2Cl)CCCCC1=O (stereo not shown) [ketamine]
[1]
  reduced immobility in the FST: 25–62%

## Fc1ccc([C@@H]2CCNC[C@H]2COc2ccc3c(c2)OCO3)cc1 [paroxetine]
[1]
  reduced immobility in the FST: 40%

## CNCCC(Oc1ccc(C(F)(F)F)cc1)c1ccccc1 (stereo not shown) [fluoxetine, reference compound]
[3]; fluoxetine 10 mg/kg IP x3, 1 h post-dose, Figure 4B
  distance traveled, first 5 min: reduced distance traveled
[3]; fluoxetine 10 mg/kg IP x3, Figure 4E
  distance traveled over 30-min session, 5-min bins: reduced distance traveled in the OFT for the first 15 min
[3]; fluoxetine 10 mg/kg IP x3, Figure 5B
  time spent in the center: significantly reduced time spent in the center
[1]
  reduced immobility in the FST: 56%
[4]; fluoxetine 10 mg/kg IP x3, Figure 1E
  climbing behavior vs controls: unaffected
[4]; fluoxetine 10 mg/kg IP x3, Figure 1G
  swimming behavior vs controls: significantly increased
[4]; fluoxetine 10 mg/kg IP x3, 1 h, 24, 72 h, Figure 3E
  climbing vs vehicle on retest: no effect on climbing
[4]; fluoxetine 10 mg/kg IP x3, 1 h post-dose
  swimming vs vehicle: significantly increased swimming
[4]; fluoxetine 10 mg/kg IP x3, 24 h post-dose
  swimming vs vehicle: small but significant increase in swimming
[4]; fluoxetine 10 mg/kg IP x3, tested 1 h, retested 24 and 72 h later, Figure 3C
  immobility vs vehicle on retest: only showed a significant effect on immobility 1 h post-dose
[4]; fluoxetine 10 mg/kg IP, three doses 23.5, 5, 1 h before testing
  reduction/change in immobility vs vehicle control: 50%
[4]; fluoxetine 10 mg/kg x3 alone or with methylone 5 mg/kg, Figure 6D
  swimming compared to vehicle: significantly increased swimming
[4]; fluoxetine 10 mg/kg, three doses within 24 h before testing
  duration of reduction in immobility: less than 24 h

## CN[C@H]1CC[C@@H](c2ccc(Cl)c(Cl)c2)c2ccccc21 [sertraline]
[1]
  reduced immobility in the FST: 50–68%
